Tests used:
[1] = Critical micelle concentration estimated from light scattering intensity and particle size; format: physicochemical; parameters: critical micell concentration (CMC): unit not given here
Experimental: FIG. 1. PFPE amide 1 emulsified with Pluronic™ F68 by sonication in 1×HBSS buffer. Emulsion was diluted in 1×HBSS and particle size measured by Dynamic Light Scattering (DLS). Data represents average of two independent measurements, (mean±SD). Critical micelle concentration (CMC) of PFPE amide 1 is 22.2 mg/mL, in presence of 21.6 mol % F68 and 1×HBSS buffer, was estimated from the intersection of the graph of two curves. Measurements performed on Zetasizer Nano (Malvern, UK).
Pluronic™ F68 was dissolved in aqueous buffer (HBSS, Hyclone) at 150 mg/mL. PFPE amide 1 was added at 152 mg/mL, and the mixture (250 μL) was placed in an 1.5 mL Eppendorf vial and sonicated (at 20 W and 20 kHz) at room temperature for 30 seconds. The emulsion was then diluted 1:3 in 1×HBSS and the particle size was measured by dynamic light scattering in Malvern Zetasizer Nano within 1 h. The molar ratio of PFPE amide 1 to F68 was 4.6:1. The polydispersity (PDI) was 0.12 to 0.19 and the average particle size 200 nm. The critical micellar concentrations (CMC) for the PFPE amide 1 and F68 was estimated by plotting the light scattering intensity and average diameter and looking for the curve intersection, as shown in FIG. 1.

dendritic cells [2] = test: PFPE uptake in dendritic cells measured by 19F NMR; format: cell-based, mouse; conditions: 3 h incubation
Experimental: (§1) Labeling mouse dendritic cells was performed according to published methods with minor modifications^35. Dendritic cells were plated in 6-well plates, 1−2×10^6/well, and allowed to attach overnight. A PFPE diethyl amide 1/L35 emulsion was mixed with 0.3 mL of serum free media, incubated for 30 min at room temperature, and then added to the cells. After a 3 h incubation at 37° C., the cell labeling medium was removed and cells were washed three times with 1×PBS, detached by trypsinization, washed, and resuspended in 0.5 mL of complete media containing 10% FBS. A portion of the cell suspension (1/10) was used for cell number estimates by Cell Titer Glo. The cells were pelleted\ and resuspended in 0.1 mL of media for ^19F NMR measurements to assess the cell loading.
When dendritic cells were used, the cell suspension (0.1 mL) was mixed with 100 ul of 1% TFA solution in glycerol as a calibrated ^19F reference. The two solutions were mixed well and transferred into a 5 mm NMR tube. Cell uptake was calculated from the relative areas under the peak at −91.5 ppm (PFPE main peak) and the TFA internal standard peak at −76 ppm. Cellular uptake (i.e., the parameter Fc) was calculated as the mean number of fluorine atoms per single viable cell.

dendritic cells [3] = test: Cell number and viability of labeled dendritic cells by Cell Titer Glo; format: cell-based, mouse; conditions: after labeling
Experimental: In the examples given below, cellular number was estimated using the commercial assay Cell Titer Glo (Promega). The assay implementation is easy and highly reproducible. A correlation curve was constructed for each labeling experiment at the day of experiment using the same cell culture. When testing the viability post-labeling, a small sample (50 μL) was taken from labeled cell suspension and mixed with Cell Titer Glo reagent in triplicate. Luminescence was measured within 10 minutes and the viable cell number was estimated from a linear correlation curve prepared on the day of experiment.
as §1

| Substance | critical micelle concentration (CMC) ([1]; 1×HBSS) [mg/mL] | critical micell concentration (CMC) ([1]; PFPE-tyramide 6/F68 24:1, thin film method, water) | uptake in DCs by 19F NMR (in words) (dendritic cells [2]) | cell viability / toxicity in DCs (in words) (dendritic cells [3]) |
| --- | --- | --- | --- | --- |
| Perfluoropolyether diethyl amide [PFPE amide 1] | 22.2 | – | – | – |
| Perfluoropolyether tyramide [PFPE tyramide 6] | – | 4.5 | comparable to the cell labeling experiments that were facilitated with protamine sulfate | non-toxic over various doses |
